Data as given in paper PMC9134086, “Inhibition of Dipeptidyl Peptidase-4 by Flavonoids: Structure–Activity Relationship, Kinetics and Interaction Mechanism” (Frontiers in Nutrition, 2022).
Values joined by “and” are separate entries in the source; they are usually repeats but may differ in a detail not shown here. Identical values can stand only once. Like-named read-outs stand apart in the source and are kept apart here. One block for each molecule: values may come before it.

What was measured:
[1] = tested on: DPP-4; set-up: method as in PMID 31441917; details: test concentration of 200 μM; cited from earlier work
[2] = target: T1, DPP-4 (human recombinant) (Homo sapiens, UniProt P27487); assay: In vitro assay for DPP-4 inhibitory activity (fluorescence, Gly-Pro-AMC); type: biochemical; details: for inhibition at 200 µM: read-out: % Inhibition at 200μM; for IC50: DPP-4 inhibition, fluorescence method;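 on all read-outs here: fluorescence of released AMC (excitation 360 nm, emission 460 nm) followed kinetically over 30 min at 37 °C in Tris-HCl pH 8.0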
T1 construct: purchased Sigma Aldrich D3446

[3] = target: T1, DPP-4 (human recombinant); assay: Inhibition kinetic analysis (V vs [DPP-4], Lineweaver-Burk, Dixon and Cornish-Bowden plots); type: biochemical; details: for Kiu (uncompetitive inhibition constant): Cornish-Bowden equation; for Inhibition type: Lineweaver-Burk, Dixon and Cornish-Bowden plots, Gly-Pro-AMC 50–200 μM, DPP-4 0.42 mU/mL; for reversibility of the inhibition: plots of V vs [DPP-4] 0.21–0.84 mU/mL, 200 μM Gly-Pro-AMC; for Ki: Dixon equation, read-out: Kic (competitive inhibition constant); for 1/Kiu: reciprocal of uncompetitive inhibition constant
[4] = target: T1, DPP-4 (human recombinant); assay: Fluorescence quenching experiments (Stern-Volmer, binding constant, thermodynamic parameters); details: for Kq (quenching rate constant): τ0 10^−8 s; for ΔH (enthalpy change) / ΔS (entropy change): from Kb at 298 and 310 K;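 on all read-outs here: intrinsic DPP-4 fluorescence emission scanned 290–500 nm, corrected for flavonoid background and inner-filter absorbance, compared without versus with flavonoid quencher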
[5] = tested on: DPP-4; set-up: method as in PMID 33063510; details: different DPP-IV inhibitor screening assay kit; cited from earlier work
[6] = flavonoid 200 μM, mean ± SD, three independent experiments

T1 sequence (P27487 whole entry): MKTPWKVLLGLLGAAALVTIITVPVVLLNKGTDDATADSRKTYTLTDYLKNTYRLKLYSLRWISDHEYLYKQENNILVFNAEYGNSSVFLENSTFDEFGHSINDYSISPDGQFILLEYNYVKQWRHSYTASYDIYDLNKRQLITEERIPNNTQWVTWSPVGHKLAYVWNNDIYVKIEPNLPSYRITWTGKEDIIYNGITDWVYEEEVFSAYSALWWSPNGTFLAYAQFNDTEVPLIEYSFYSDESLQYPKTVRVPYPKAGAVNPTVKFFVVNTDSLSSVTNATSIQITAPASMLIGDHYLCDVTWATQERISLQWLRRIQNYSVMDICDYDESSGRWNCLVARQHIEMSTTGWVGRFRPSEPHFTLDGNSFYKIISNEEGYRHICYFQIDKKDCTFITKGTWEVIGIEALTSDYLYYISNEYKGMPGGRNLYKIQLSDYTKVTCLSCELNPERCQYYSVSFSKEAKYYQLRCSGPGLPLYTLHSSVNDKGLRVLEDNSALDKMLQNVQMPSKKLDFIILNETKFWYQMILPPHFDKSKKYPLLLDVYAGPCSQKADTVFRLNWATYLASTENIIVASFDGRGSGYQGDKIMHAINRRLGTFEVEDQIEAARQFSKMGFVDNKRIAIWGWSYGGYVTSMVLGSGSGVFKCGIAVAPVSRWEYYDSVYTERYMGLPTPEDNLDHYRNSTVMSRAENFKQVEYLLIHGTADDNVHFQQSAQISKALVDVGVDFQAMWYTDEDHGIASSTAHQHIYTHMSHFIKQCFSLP

Molecule: O=c1cc(-c2ccc(O)cc2)oc2cc(O)cc(O)c12 [A1, Apigenin]
inhibitory percentage [1]: 44 ± 2% | inhibition at 200 µM [2, 6]: 46.4 ± 1.49%

Molecule: O=C1C[C@@H](c2ccc(O)cc2)Oc2cc(O)cc(O)c21 [C6, Naringenin]
inhibitory percentage [1]: lower than 20% | inhibition at 200 µM [2, 6]: < 10%

Molecule: O=C1c2c(O)cc(O)cc2OC(c2ccc(O)c(O)c2)C1O (stereo not drawn) [C8, Taxifolin]
inhibitory percentage [1]: lower than 20% | inhibition at 200 µM [2, 6]: 19.9 ± 0.65%

Molecule: O=c1c(O[C@@H]2O[C@H](CO)[C@H](O)[C@H](O)[C@H]2O)c(-c2ccc(O)c(O)c2)oc2cc(O)cc(O)c12 [E4, Hyperoside]
Kiu (uncompetitive inhibition constant) [3]: 14.8 ± 0.22 10^−5 mol L^−1 | Inhibition type [3]: Mixed | reversibility of the inhibition [3]: reversible | % Inhibition at 200μM [2, 6]: 62.10 ±0.16% | inhibition at 200 µM [2, 6]: > 50% | KSV (Stern-Volmer quenching constant) ([4]; 298 K): 4.83 ± 0.01 ×10^4 L mol^−1 | n (number of binding sites) ([4]; 298 K): 1.04 ± 0.02 | ΔG (Gibbs free-energy change) ([4]; 298 K): -6.6334 kcal/mol | Kq (quenching rate constant) ([4]; 298 K): 4.83 ± 0.01 ×10^12 L mol^−1 s^−1 | KSV (Stern-Volmer quenching constant) ([4]; 310 K): 4.08 ± 0.01 ×10^4 L mol^−1 | n (number of binding sites) ([4]; 310 K): 1.03 ± 0.02 | ΔG (Gibbs free-energy change) ([4]; 310 K): -6.7641 kcal/mol | Kq (quenching rate constant) ([4]; 310 K): 4.08 ± 0.01 ×10^12 L mol^−1 s^−1 | ΔH (enthalpy change) [4]: -3.3815 kcal/mol | ΔS (entropy change) [4]: 45.66 J mol^−1K^−1

Molecule: O=c1c(O)c(-c2cc(O)c(O)c(O)c2)oc2cc(O)cc(O)c12 [E19, Myricetin]
IC50 [2]: < 200 µM | ΔG (Gibbs free-energy change) ([4]; 310 K): -5.946 kcal/mol

Molecule: COc1cc(-c2oc3cc(O)cc(O)c3c(=O)c2O[C@@H]2O[C@H](CO[C@@H]3O[C@@H](C)[C@H](O)[C@@H](O)[C@H]3O)[C@@H](O)[C@H](O)[C@H]2O)ccc1O [E21, Narcissoside]
Kiu (uncompetitive inhibition constant) [3]: 22.3 ± 0.15 10^−5 mol L^−1 | Ki [3]: 116 ± 2.1 µM | Inhibition type [3]: Mixed | reversibility of the inhibition [3]: reversible | 1/Kic ([3]; reciprocal of competitive inhibition constant): 0.86 ± 0.02 10^4 L mol^−1 | 1/Kiu [3]: 0.44 ± 0.03 10^4 L mol^−1 | IC50 [2]: 167 µM and < 200 µM | % Inhibition at 200μM [2, 6]: 57.50 ±1.28% | inhibition at 200 µM [2, 6]: > 50% | KSV (Stern-Volmer quenching constant) ([4]; 298 K): 7.212 ± 0.01 ×10^4 L mol^−1 | n (number of binding sites) ([4]; 298 K): 1.22 ± 0.02 | ΔG (Gibbs free-energy change) ([4]; 298 K): -8.059 kcal/mol | Kq (quenching rate constant) ([4]; 298 K): 7.212 ± 0.01 ×10^12 L mol^−1 s^−1 | KSV (Stern-Volmer quenching constant) ([4]; 310 K): 6.389 ± 0.01 ×10^4 L mol^−1 | n (number of binding sites) ([4]; 310 K): 1.21 ± 0.02 | ΔG (Gibbs free-energy change) ([4]; 310 K): -8.305 kcal/mol | Kq (quenching rate constant) ([4]; 310 K): 6.389 ± 0.01 ×10^12 L mol^−1 s^−1 | ΔH (enthalpy change) [4]: -1.937 kcal/mol | ΔS (entropy change) [4]: 85.93 J mol^−1K^−1

Molecule: O=c1c(O)c(-c2ccc(O)c(O)c2)oc2cc(O)cc(O)c12 [E23, Quercetin]
inhibitory percentage [1]: 46 ± 2% | inhibition at 200 µM [2, 6]: 39.4 ± 0.58% | inhibitory percentage relative to rhamnetin (E27) ([2]; ratio of % inhibition at 200 μM, quercetin vs rhamnetin): 1.77 times

Molecule: C[C@@H]1O[C@@H](OC[C@H]2O[C@@H](Oc3c(-c4ccc(O)c(O)c4)oc4cc(O)cc(O)c4c3=O)[C@H](O)[C@@H](O)[C@@H]2O)[C@H](O)[C@H](O)[C@H]1O [E28, Rutin]
inhibition at 200 µM [2, 6]: 42.7 ± 1.28%

Molecule: COc1cc(-c2[o+]c3cc(O)cc(O)c3cc2OC2OC(CO)C(O)C(O)C2O)cc(OC)c1O (stereo not drawn) [F3, Malvidin 3-O-glucoside]
inhibition at 200 µM [2]: 15 ± 2.42%

Molecule: O=C(CCc1ccc(O)cc1)c1c(O)cc(O)cc1O [G3, Phloretin]
inhibition at 200 µM [2]: 17.8 ± 1.21%

Molecule: Myricitrin [E20]
% Inhibition at 200μM [2, 6]: 39.8 ± 0.78%

Now from value to molecule, other results behind:

inhibition at 200 µM [2, 6]: 18.8 ± 0.4%
Molecule: Oc1cc(O)c2cc(O)c(-c3ccc(O)c(O)c3)[o+]c2c1 [F1, Cyanidin]

Kiu (uncompetitive inhibition constant) [3]: 18.37 ± 0.24 10^−5 mol L^−1 | Ki [3]: 74.3 ± 1.2 µM | Inhibition type [3]: Mixed | reversibility of the inhibition [3]: reversible | 1/Kiu [3]: 0.57 ± 0.03 10^4 L mol^−1 | IC50 [2]: 81.1 ± 4.14 µM | % Inhibition at 200μM [2, 6]: 68.05 ±0.15% | inhibition at 200 µM [2, 6]: > 50% | inhibitory percentage relative to cyanidin (F1) ([2]; ratio of % inhibition at 200 μM, cyanidin 3-O-glucoside vs cyanidin): 3.62 times | KSV (Stern-Volmer quenching constant) ([4]; 298 K): 3.64 ± 0.04 ×10^4 L mol^−1 | n (number of binding sites) ([4]; 298 K): 1.05 ± 0.01 | ΔG (Gibbs free-energy change) ([4]; 298 K): -6.577 kcal/mol | Kq (quenching rate constant) ([4]; 298 K): 3.64 ± 0.04 ×10^12 L mol^−1 s^−1 | KSV (Stern-Volmer quenching constant) ([4]; 310 K): 3.08 ± 0.06 ×10^4 L mol^−1 | n (number of binding sites) ([4]; 310 K): 1.04 ± 0.01 | Kq (quenching rate constant) ([4]; 310 K): 3.08 ± 0.06 ×10^12 L mol^−1 s^−1 | ΔH (enthalpy change) [4]: -1.971 kcal/mol | ΔS (entropy change) [4]: 64.68 J mol^−1K^−1
Molecule: OCC1OC(Oc2cc3c(O)cc(O)cc3[o+]c2-c2ccc(O)c(O)c2)C(O)C(O)C1O (stereo not drawn) [F2, Cyanidin 3-O-glucoside chloride]
IC50 [5]: 8.26 µM

inhibition at 200 µM [2, 6]: 13.7 ± 2.07%
Molecule: COc1cc(-c2[o+]c3cc(O)cc(OC4OC(CO)C(O)C(O)C4O)c3cc2OC2OC(CO)C(O)C(O)C2O)cc(OC)c1O (stereo not drawn) [F4, Malvin]

inhibition at 200 µM [2, 6]: < 10%
Molecule: Oc1ccc(-c2[o+]c3cc(O)cc(O)c3cc2O)cc1 [F5, Pelargonidin]

Kiu (uncompetitive inhibition constant) [3]: 26.7 ± 0.34 10^−5 mol L^−1 | Ki [3]: 98.2 ± 3.4 µM | IC50 [2]: 150 µM and < 200 µM | inhibition at 200 µM [2, 6]: > 50% | ΔH (enthalpy change) [4]: -1.901 kcal/mol
Molecule: O=C(/C=C/c1ccc(O)cc1)c1ccc(O)cc1O [G1, Isoliquiritigenin]

% Inhibition at 200μM [2, 6]: 17.15 ± 0.23%
Molecule: COc1ccc(CCC(=O)c2c(O)cc(O[C@@H]3O[C@H](CO)[C@@H](O)[C@H](O)[C@H]3O[C@@H]3O[C@@H](C)[C@H](O)[C@@H](O)[C@H]3O)cc2O)cc1O [G2, Neosperidin dihydrochalcone]

inhibition at 200 µM [2, 6]: < 10%
Molecule: O=C(CCc1ccc(O)cc1)c1c(O)cc(O)cc1O[C@@H]1O[C@H](CO)[C@@H](O)[C@H](O)[C@H]1O [G4, Phlorizin]
